Test results published in patent publication US9802937B2, “Substituted pyrazolo{4,3-D}pyrimidines as kinase inhibitors” (ORIGENIS GMBH, priority 2011, dated 2017).

How the values were obtained:
[1] = target: MYLK (Homo sapiens, UniProt Q15746); assay: MYLK Assay (LanthaScreen Eu Kinase Binding Assay); settings: 5 nM MYLK, 30 nM tracer 236, RT 1 h; read-out: MYLK Activities: IC50
Description: In the assay LanthaScreen™ Eu Kinase Binding Assay by Invitrogen Corporation (Carlsbad) the effect of invention of a compound on the phosphorylation is determined by measurement of fluorescence intensity emission ratio based on the binding and displacement of a proprietary, Alexa Fluor® 647-labeled, ATP-competitive kinase inhibitor scaffold (kinase tracer) to the kinase of interest as described above.
To the wells of an 384 well small volume plate (Greiner, Frickenhausen) are added (i) the compound under test in 5% is DMSO/distilled water (5 μl), (ii) 5 μl of the kinase antibody mixture resulting in a final concentration 5 nM MYLK, 2 nM EU-Anti-GST antibody in 1× kinase buffer A. The reaction was started with addition of (iii) 5 μl resulting in a final concentration of 30 nM tracer 236. The assay plate was incubated at RT for 1 h and fluorescence intensity readings were collected using a TECAN M1000 at two wavelengths of λex 340/λem 615 nm and λex 340/λem 665 nm with a delay time of 100 μs and an integration time of 200 μs after 60 minutes. The emission ratio was calculated by division of the acceptor/tracer emission ([…]) by the antibody/donor emission ([…]). The inhibitor concentration was plotted versus the emission ratio to determine the IC50 using XLFit 5.0 (IDBS, Guildford) to fit to a sigmoidal dose response curve with a variable slope.

[2] = target: T1, SYK kinase (Homo sapiens, UniProt P43405); assay: SYK Assay (OMNIA KINASE ASSAY, SOX peptide fluorescence); format: biochemical; settings: apparent Ki calculated from the IC50 using the Cheng-Prusoff equation; 1 mM ATP, 30° C.; read-out: SYK Activities: Ki
T1 construct: purchased Invitrogen, Carlsbad
Procedure, shortened: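 Apparent Ki values are derived by Cheng-Prusoff from IC50s of sigmoidal fits of reaction rate against compound concentration. Rates come from chelation-enhanced SOX fluorescence (λex 360/λem 485 nm, read every 30 s over 30 min) as the kinase phosphorylates 10 µM Omnia Tyr 7 peptide at 30 °C, with 1 mM ATP and 0.2 mM DTT.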

[3] = target: LRRK2 (Homo sapiens, UniProt Q5S007); assay: LRRK2-LRRK2 G2019S-Assay (LanthaScreen Eu Kinase Binding Assay); settings: 5 nM LRRK2 or their mutants, 10 nM tracer 236, RT 1 h; read-out: LRRK2 Activities: IC50
Procedure, shortened: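 Kinase (wild type or mutant, 5 nM) mixed with Eu-anti-GST antibody (2 nM), then 10 nM Alexa Fluor 647 tracer 236 added. After 1 h at room temperature, the acceptor/donor (665/615 nm) FRET ratio was measured. IC50 was fitted from concentration–ratio curves.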

[4] = tested on: refractory NHL and chronic lymphocytic leukemia; settings: phase II; cited from earlier work
[5] = tested on: lymphoma cell lines and primary human lymphoma samples; settings: cited from earlier work
[6] = tested on: Syk; settings: various stimuli, including FcepsilonR1 and BCR induced Syk activation; cited from earlier work
[7] = tested on: JAK kinases; settings: cited from earlier work

Chain of MYLK (Q15746 whole entry): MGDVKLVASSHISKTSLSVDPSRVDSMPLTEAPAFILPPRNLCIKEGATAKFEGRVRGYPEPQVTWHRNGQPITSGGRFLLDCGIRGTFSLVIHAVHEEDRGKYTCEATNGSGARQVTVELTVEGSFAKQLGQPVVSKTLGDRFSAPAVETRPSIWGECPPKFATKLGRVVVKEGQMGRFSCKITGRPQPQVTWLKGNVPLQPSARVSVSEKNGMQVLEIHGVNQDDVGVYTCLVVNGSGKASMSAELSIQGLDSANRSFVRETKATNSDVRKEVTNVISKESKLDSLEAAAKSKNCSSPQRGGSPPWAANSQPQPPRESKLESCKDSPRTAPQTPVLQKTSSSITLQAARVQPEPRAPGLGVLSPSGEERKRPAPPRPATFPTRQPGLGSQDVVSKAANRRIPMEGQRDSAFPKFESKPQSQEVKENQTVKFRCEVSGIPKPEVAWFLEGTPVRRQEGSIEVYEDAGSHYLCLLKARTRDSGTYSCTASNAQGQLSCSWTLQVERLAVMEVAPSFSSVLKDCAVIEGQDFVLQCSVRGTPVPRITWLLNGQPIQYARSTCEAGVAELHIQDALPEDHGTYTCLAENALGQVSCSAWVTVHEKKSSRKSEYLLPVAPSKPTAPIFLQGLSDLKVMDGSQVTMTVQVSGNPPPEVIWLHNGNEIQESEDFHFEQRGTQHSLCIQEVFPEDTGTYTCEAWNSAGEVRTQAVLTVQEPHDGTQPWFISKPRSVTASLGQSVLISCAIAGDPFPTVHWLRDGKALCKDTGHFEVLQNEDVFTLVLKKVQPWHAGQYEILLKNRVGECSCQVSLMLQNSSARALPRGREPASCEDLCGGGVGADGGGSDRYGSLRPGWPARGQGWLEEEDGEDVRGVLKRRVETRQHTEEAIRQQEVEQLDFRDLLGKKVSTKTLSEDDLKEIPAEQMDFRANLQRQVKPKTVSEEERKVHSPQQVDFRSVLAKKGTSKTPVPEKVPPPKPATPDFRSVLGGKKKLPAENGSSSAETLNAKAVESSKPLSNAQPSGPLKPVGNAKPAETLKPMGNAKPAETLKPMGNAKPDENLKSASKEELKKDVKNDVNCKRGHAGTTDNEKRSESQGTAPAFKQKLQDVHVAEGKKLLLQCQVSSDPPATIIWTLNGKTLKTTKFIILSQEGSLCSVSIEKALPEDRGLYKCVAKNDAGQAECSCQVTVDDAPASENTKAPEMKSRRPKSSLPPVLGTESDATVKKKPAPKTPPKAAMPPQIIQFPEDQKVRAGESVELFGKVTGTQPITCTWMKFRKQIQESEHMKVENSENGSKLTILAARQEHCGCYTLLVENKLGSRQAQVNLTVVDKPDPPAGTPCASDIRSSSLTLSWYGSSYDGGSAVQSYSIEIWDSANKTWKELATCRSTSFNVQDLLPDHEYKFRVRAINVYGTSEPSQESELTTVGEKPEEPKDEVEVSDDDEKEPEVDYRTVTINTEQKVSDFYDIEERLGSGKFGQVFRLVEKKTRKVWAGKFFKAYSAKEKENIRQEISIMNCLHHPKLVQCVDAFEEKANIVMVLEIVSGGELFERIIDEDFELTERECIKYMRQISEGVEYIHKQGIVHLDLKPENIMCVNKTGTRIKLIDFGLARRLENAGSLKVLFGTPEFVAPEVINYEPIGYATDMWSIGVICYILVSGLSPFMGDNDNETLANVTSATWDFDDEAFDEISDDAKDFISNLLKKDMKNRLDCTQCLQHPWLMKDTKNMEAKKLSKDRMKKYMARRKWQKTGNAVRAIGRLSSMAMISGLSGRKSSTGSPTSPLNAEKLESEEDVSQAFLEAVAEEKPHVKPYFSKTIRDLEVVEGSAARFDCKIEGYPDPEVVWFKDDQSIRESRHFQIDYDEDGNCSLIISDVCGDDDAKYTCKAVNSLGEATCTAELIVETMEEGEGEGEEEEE
Chain of LRRK2 (Q5S007 970-2527 limits assumed): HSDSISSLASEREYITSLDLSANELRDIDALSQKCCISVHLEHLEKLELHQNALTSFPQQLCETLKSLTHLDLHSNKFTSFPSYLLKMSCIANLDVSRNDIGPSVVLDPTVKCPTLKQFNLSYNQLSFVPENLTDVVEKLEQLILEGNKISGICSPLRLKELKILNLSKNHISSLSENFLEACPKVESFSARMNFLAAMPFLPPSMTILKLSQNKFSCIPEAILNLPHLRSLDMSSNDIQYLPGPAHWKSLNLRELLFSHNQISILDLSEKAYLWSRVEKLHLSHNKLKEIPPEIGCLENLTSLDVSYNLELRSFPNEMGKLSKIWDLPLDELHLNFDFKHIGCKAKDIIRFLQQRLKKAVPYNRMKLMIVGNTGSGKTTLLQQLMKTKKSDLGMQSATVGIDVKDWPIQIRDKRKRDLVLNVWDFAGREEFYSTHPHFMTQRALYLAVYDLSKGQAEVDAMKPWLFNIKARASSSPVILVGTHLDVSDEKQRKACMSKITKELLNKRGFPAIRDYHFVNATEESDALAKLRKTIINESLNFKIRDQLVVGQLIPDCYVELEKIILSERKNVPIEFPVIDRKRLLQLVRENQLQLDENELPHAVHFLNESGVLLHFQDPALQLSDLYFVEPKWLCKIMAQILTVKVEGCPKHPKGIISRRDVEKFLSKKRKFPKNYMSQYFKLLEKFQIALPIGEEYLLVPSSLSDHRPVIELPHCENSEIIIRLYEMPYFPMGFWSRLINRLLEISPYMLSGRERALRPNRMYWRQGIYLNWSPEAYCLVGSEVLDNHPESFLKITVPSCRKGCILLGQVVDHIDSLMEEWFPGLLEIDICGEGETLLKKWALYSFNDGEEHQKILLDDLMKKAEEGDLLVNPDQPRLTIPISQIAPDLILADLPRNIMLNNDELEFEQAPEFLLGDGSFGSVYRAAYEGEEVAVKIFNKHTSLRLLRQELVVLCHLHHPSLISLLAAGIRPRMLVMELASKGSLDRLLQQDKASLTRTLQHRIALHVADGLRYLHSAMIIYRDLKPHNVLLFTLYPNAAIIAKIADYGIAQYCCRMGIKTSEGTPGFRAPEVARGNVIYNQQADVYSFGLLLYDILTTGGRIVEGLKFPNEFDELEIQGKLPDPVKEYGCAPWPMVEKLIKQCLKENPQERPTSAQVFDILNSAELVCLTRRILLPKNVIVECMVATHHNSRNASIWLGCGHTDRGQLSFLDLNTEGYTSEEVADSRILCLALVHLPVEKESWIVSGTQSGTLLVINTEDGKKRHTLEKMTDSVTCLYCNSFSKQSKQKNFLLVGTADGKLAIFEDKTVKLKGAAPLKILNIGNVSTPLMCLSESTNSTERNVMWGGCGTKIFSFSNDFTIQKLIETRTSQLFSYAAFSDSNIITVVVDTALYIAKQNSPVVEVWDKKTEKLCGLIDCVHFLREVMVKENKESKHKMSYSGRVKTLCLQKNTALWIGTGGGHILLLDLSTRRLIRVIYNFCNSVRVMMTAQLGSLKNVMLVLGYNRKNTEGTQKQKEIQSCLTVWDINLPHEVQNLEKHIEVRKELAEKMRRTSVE

SMILES	IC50 [1]	Ki [2]	IC50 [3]	clinical result [4]	BCR signaling ([5]; lymphoma cell lines and primary human lymphoma samples)	apoptosis ([5]; lymphoma cell lines)	inhibition of ITAM signaling [6]	activity against JAK kinases [7]
CN1CCN(c2ccc(Nc3nc(-c4cccc(S(N)(=O)=O)c4)nc4cn[nH]c34)cc2)CC1 [Example #182, 3-(7-((4-(4-methylpiperazin-1-yl)phenyl)amino)-1H-pyrazolo[4,3-d]pyrimidin-5-yl)benzenesulfonamide]	< 5000 nM	< 10 nM	10 to 100 nM					
CN1CCN(c2ccc(Nc3nc(-c4cccc(NS(C)(=O)=O)c4)nc4cn[nH]c34)cc2)CC1 [Example #187, N-(3-(7-((4-(4-methylpiperazin-1-yl)phenyl)amino)-1H-pyrazolo[4,3-d]pyrimidin-5-yl)phenyl)methanesulfonamide]	< 5000 nM	< 10 nM	100 to 1000 nM					
CS(=O)(=O)Nc1cccc(-c2nc(Nc3ccc(N4CCNCC4)cc3)c3[nH]ncc3n2)c1 [Example #188, N-(3-(7-((4-(piperazin-1-yl)phenyl)amino)-1H-pyrazolo[4,3-d]pyrimidin-5-yl)phenyl)methanesulfonamide]	< 5000 nM	< 10 nM	100 to 1000 nM					
COc1ccc(Nc2nc(-c3cccc(NS(C)(=O)=O)c3)nc3cn[nH]c23)cc1OC [Example #189, N-(3-(7-((3,4-dimethoxyphenyl)amino)-1H-pyrazolo[4,3-d]pyrimidin-5-yl)phenyl)methanesulfonamide]	< 5000 nM	< 10 nM	100 to 1000 nM					
CS(=O)(=O)Nc1cccc(-c2nc(Nc3ccc4c(c3)NC(=O)CC4)c3[nH]ncc3n2)c1 [Example #190, N-(3-(7-((2-oxo-1,2,3,4-tetrahydroquinolin-7-yl)amino)-1H-pyrazolo[4,3-d]pyrimidin-5-yl)phenyl)methanesulfonamide]	< 5000 nM	< 10 nM	10 to 100 nM					
CC(=O)N1CCN(c2ccc(Nc3nc(-c4cccc(NS(C)(=O)=O)c4)nc4cn[nH]c34)cc2)CC1 [Example #191, N-(3-(7-((4-(4-acetylpiperazin-1-yl)phenyl)amino)-1H-pyrazolo[4,3-d]pyrimidin-5-yl)phenyl)methanesulfonamide]	< 5000 nM	< 10 nM	100 to 1000 nM					
CSc1cccc(-c2nc(Nc3ccc(N4CCN(C)CC4)cc3)c3[nH]ncc3n2)c1 [Example #225, N-(4-(4-methylpiperazin-1-yl)phenyl)-5-(3-(methylthio)phenyl)-1H-pyrazolo[4,3-d]pyrimidin-7-amine]	< 5000 nM	< 10 nM	100 to 1000 nM					
NS(=O)(=O)c1cccc(-c2nc(Nc3ccc4c(c3)NC(=O)CC4)c3[nH]ncc3n2)c1 [Example #238, 3-(7-((2-oxo-1,2,3,4-tetrahydroquinolin-7-yl)amino)-1H-pyrazolo[4,3-d]pyrimidin-5-yl)benzenesulfonamide]	< 5000 nM	< 10 nM	10 to 100 nM					
COc1cc(Nc2nc(-c3cccc(S(N)(=O)=O)c3)nc3cn[nH]c23)ccc1N1CCOCC1 [Example #240, 3-(7-((3-methoxy-4-morpholinophenyl)amino)-1H-pyrazolo[4,3-d]pyrimidin-5-yl)benzenesulfonamide]	< 5000 nM	< 10 nM	100 to 1000 nM					
c1cc(N2CCOCC2)ccc1Nc1nc(-c2ccc3cn[nH]c3c2)nc2cn[nH]c12 [Example #247, 5-(1H-indazol-6-yl)-N-(4-morpholinophenyl)-1H-pyrazolo[4,3-d]pyrimidin-7-amine]	< 5000 nM	< 10 nM	< 10 nM					
CN1CCN(c2ccc(Nc3nc(-c4ccc5cn[nH]c5c4)nc4cn[nH]c34)cc2)CC1 [Example #248, 5-(1H-indazol-6-yl)-N-(4-(4-methylpiperazin-1-yl)phenyl)-1H-pyrazolo[4,3-d]pyrimidin-7-amine]	< 5000 nM	< 10 nM	100 to 1000 nM					
CS(=O)(=O)c1cccc(Nc2nc(-c3cccs3)nc3cn[nH]c23)c1 [Example #254, N-(3-(methylsulfonyl)phenyl)-5-(thiophen-2-yl)-1H-pyrazolo[4,3-d]pyrimidin-7-amine]	< 5000 nM	10 to 100 nM	100 to 1000 nM					
C[S+]([O-])c1cccc(Nc2nc(-c3cccs3)nc3cn[nH]c23)c1 (centres unmarked) [Example #268, N-(3-(methylsulfinyl)phenyl)-5-(thiophen-2-yl)-1H-pyrazolo[4,3-d]pyrimidin-7-amine]	< 5000 nM	10 to 100 nM	100 to 1000 nM					
CN1CCN(c2ccc(Nc3nc(-c4ccccc4F)nc4cn[nH]c34)cc2)CC1 [Example #275, 5-(2-fluorophenyl)-N-(4-(4-methylpiperazin-1-yl)phenyl)-1H-pyrazolo[4,3-d]pyrimidin-7-amine]	< 5000 nM	< 10 nM	100 to 1000 nM					
Fc1ccccc1-c1nc(Nc2ccc(N3CCN(C4CC4)CC3)cc2)c2[nH]ncc2n1 [Example #279, N-(4-(4-cyclopropylpiperazin-1-yl)phenyl)-5-(2-fluorophenyl)-1H-pyrazolo[4,3-d]pyrimidin-7-amine]	< 5000 nM	10 to 100 nM	100 to 1000 nM					
COc1ccc(Nc2nc(-c3ccc4cn[nH]c4c3)nc3cn[nH]c23)cc1OC [Example #280, N-(3,4-dimethoxyphenyl)-5-(1H-indazol-6-yl)-1H-pyrazolo[4,3-d]pyrimidin-7-amine]	< 5000 nM	< 10 nM	10 to 100 nM					
CN1CCN(C2CCN(c3ccc(Nc4nc(-c5c(F)cccc5F)nc5cn[nH]c45)cc3)CC2)CC1 [Example #284, 5-(2,6-difluorophenyl)-N-(4-(4-(4-methylpiperazin-1-yl)piperidin-1-yl)phenyl)-1H-pyrazolo[4,3-d]pyrimidin-7-amine]	< 5000 nM	10 to 100 nM	100 to 1000 nM					
CN1CCN(C2CCN(c3ccc(Nc4nc(-c5cccs5)nc5cn[nH]c45)cc3)CC2)CC1 [Example #290, N-(4-(4-(4-methylpiperazin-1-yl)piperidin-1-yl)phenyl)-5-(thiophen-2-yl)-1H-pyrazolo[4,3-d]pyrimidin-7-amine]	< 5000 nM	< 10 nM	100 to 1000 nM					
c1csc(-c2nc(Nc3ccc(N4CCN(C5CC5)CC4)cc3)c3[nH]ncc3n2)c1 [Example #293, N-(4-(4-cyclopropylpiperazin-1-yl)phenyl)-5-(thiophen-2-yl)-1H-pyrazolo[4,3-d]pyrimidin-7-amine]	< 5000 nM	< 10 nM	100 to 1000 nM					
O=C(c1ccc(Nc2nc(-c3cccs3)nc3cn[nH]c23)cc1)N1CCOCC1 [Example #294, morpholino(4-((5-(thiophen-2-yl)-1H-pyrazolo[4,3-d]pyrimidin-7-yl)amino)phenyl)methanone]	< 5000 nM	10 to 100 nM	100 to 1000 nM					
c1csc(-c2nc(Nc3ccc(CN4CCOCC4)cc3)c3[nH]ncc3n2)c1 [Example #295, N-(4-(morpholinomethyl)phenyl)-5-(thiophen-2-yl)-1H-pyrazolo[4,3-d]pyrimidin-7-amine]	< 5000 nM	< 10 nM	100 to 1000 nM					
COc1cc(Nc2ncc(F)c(Nc3ccc4c(n3)NC(=O)C(C)(C)O4)n2)cc(OC)c1OC [Example R406]				favorable results	attenuates BCR signaling	resulting in apoptosis of the former	inhibit ITAM signaling	active
